# Reference: PubChem BioAssay (NCI)
#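 Step 1: Grow cells in 96-well plates. Step 2: Expose to compound for 48 hours at 5 concentrations. Step 3: Interpolate endpoints linearly; if unreached, use highest concentration. The concentration for 50% growth inhibition is given as GI50. TGI: total growth inhibition.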
# Legend:
# Experiment in all cases: NCI anticancer screen, dose series, 48 h
# [1] = test system: 786-0 renal
# [2] = test system: A549 NSCLC
# [3] = test system: ACHN renal
# [4] = test system: CAKI-1 renal
# [5] = test system: CCRF-CEM leukemia
# [6] = test system: COLO 205 colon
# [7] = test system: DMS 114 small cell lung
# [8] = test system: DMS 273 small cell lung
# [9] = test system: EKVX NSCLC
# [10] = test system: HCC-2998 colon
# [11] = test system: HCT-116 colon
# [12] = test system: HCT-15 colon
# [13] = test system: HL-60(TB) leukemia
# [14] = test system: HOP-18 NSCLC
# [15] = test system: HOP-62 NSCLC
# [16] = test system: HOP-92 NSCLC
# [17] = test system: HT29 colon
# [18] = test system: IGROV1 ovarian
# [19] = test system: K-562 leukemia
# [20] = test system: KM12 colon
# [21] = test system: KM20L2 colon
# [22] = test system: LOX IMVI melanoma
# [23] = test system: M14 melanoma
# [24] = test system: M19-MEL melanoma
# [25] = test system: MALME-3M melanoma
# [26] = test system: MOLT-4 leukemia
# [27] = test system: NCI-H226 lung
# [28] = test system: NCI-H460 lung
# [29] = test system: NCI-H522 lung
# [30] = test system: OVCAR-3 ovarian
# [31] = test system: OVCAR-4 ovarian
# [32] = test system: OVCAR-5 ovarian
# [33] = test system: OVCAR-8 ovarian
# [34] = test system: RXF 393 renal
# [35] = test system: SF-268 CNS
# [36] = test system: SF-295 CNS
# [37] = test system: SF-539 CNS
# [38] = test system: SK-MEL-2 melanoma
# [39] = test system: SK-OV-3 ovarian
# [40] = test system: SN12C renal
# [41] = test system: SNB-19 CNS
# [42] = test system: SNB-78 CNS
# [43] = test system: SR leukemia
# [44] = test system: SW-620 colon
# [45] = test system: UACC-62 melanoma
# [46] = test system: UO-31 renal
# [47] = test system: A498 renal
# [48] = test system: NCI-H23 lung
# [49] = test system: RPMI-8226 leukemia
# [50] = test system: SK-MEL-28 melanoma
# [51] = test system: SK-MEL-5 melanoma
# [52] = test system: SNB-75 CNS
# [53] = test system: TK-10 renal
# [54] = test system: U251 CNS
# [55] = test system: UACC-257 melanoma
# [56] = test system: BT-549 breast
# [57] = test system: DU-145 prostate
# [58] = test system: HS 578T breast
# [59] = test system: MCF7 breast
# [60] = test system: MDA-MB-231 breast
# [61] = test system: MDA-MB-435
# [62] = test system: MDA-N
# [63] = test system: NCI/ADR-RES ovarian
# [64] = test system: PC-3 prostate
# [65] = test system: T-47D breast
smiles,measurement,setting,value
C[C@@H]1C(=O)CC2C(C)(C)CCC[C@]2(C)[C@@]12CC[C@]1(C=COC1)O2 (some centres not stated),TGI,[1],> 100 µM
same,TGI,[2],> 100 µM
same,TGI,[3],> 100 µM
same,TGI,[4],> 100 µM
same,TGI,[5],70.8 µM
same,TGI,[6],> 100 µM
same,TGI,[7],> 100 µM
same,TGI,[8],> 100 µM
same,TGI,[9],> 100 µM
same,TGI,[10],> 100 µM
same,TGI,[11],> 100 µM
same,TGI,[12],> 100 µM
same,TGI,[13],42.3 µM
same,TGI,[14],> 100 µM
same,TGI,[15],> 100 µM
same,TGI,[16],48 µM
same,TGI,[17],> 100 µM
same,TGI,[18],> 100 µM
same,TGI,[19],80.4 µM
same,TGI,[20],> 100 µM
same,TGI,[21],> 100 µM
same,TGI,[22],> 100 µM
same,TGI,[23],> 100 µM
same,TGI,[24],> 100 µM
same,TGI,[25],79.5 µM
same,TGI,[26],42.9 µM
same,TGI,[27],> 100 µM
same,TGI,[28],> 100 µM
same,TGI,[29],50 µM
same,TGI,[30],> 100 µM
same,TGI,[31],> 100 µM
same,TGI,[32],> 100 µM
same,TGI,[33],> 100 µM
same,TGI,[34],56.3 µM
same,TGI,[35],> 100 µM
same,TGI,[36],> 100 µM
same,TGI,[37],> 100 µM
same,TGI,[38],44.3 µM
same,TGI,[39],91.7 µM
same,TGI,[40],38 µM
same,TGI,[41],> 100 µM
same,TGI,[42],> 100 µM
same,TGI,[43],59 µM
same,TGI,[44],> 100 µM
same,TGI,[45],> 100 µM
same,TGI,[46],> 100 µM
O=C([CH-]C(=O)c1ccccc1)c1ccccc1.O=C([CH-]C(=O)c1ccccc1)c1ccccc1.O=C([CH-]C(=O)c1ccccc1)c1ccccc1.[Ga+3],GI50,[1],> 100 µM
same,TGI,[1],> 100 µM
same,GI50,[47],56.8 µM
same,TGI,[47],> 100 µM
same,GI50,[2],39.6 µM
same,TGI,[2],> 100 µM
same,GI50,[3],59 µM
same,TGI,[3],> 100 µM
same,GI50,[4],67 µM
same,TGI,[4],> 100 µM
same,GI50,[6],> 100 µM
same,TGI,[6],> 100 µM
same,GI50,[11],23.4 µM
same,TGI,[11],> 100 µM
same,GI50,[13],20.5 µM
same,TGI,[13],> 100 µM
same,GI50,[14],39.7 µM
same,TGI,[14],> 100 µM
same,GI50,[16],> 100 µM
same,TGI,[16],> 100 µM
same,GI50,[17],88.8 µM
same,TGI,[17],> 100 µM
same,GI50,[18],81.9 µM
same,TGI,[18],> 100 µM
same,GI50,[19],30.9 µM
same,TGI,[19],> 100 µM
same,GI50,[20],91.5 µM
same,TGI,[20],> 100 µM
same,GI50,[21],59.2 µM
same,TGI,[21],> 100 µM
same,GI50,[22],18 µM
same,TGI,[22],> 100 µM
same,GI50,[23],37.6 µM
same,TGI,[23],> 100 µM
same,GI50,[25],> 100 µM
same,TGI,[25],> 100 µM
same,GI50,[26],13.3 µM
same,TGI,[26],> 100 µM
same,GI50,[27],26.1 µM
same,TGI,[27],> 100 µM
same,GI50,[48],47.4 µM
same,TGI,[48],> 100 µM
same,GI50,[28],16.3 µM
same,TGI,[28],> 100 µM
same,GI50,[29],19.3 µM
same,TGI,[29],68.6 µM
same,GI50,[30],> 100 µM
same,TGI,[30],> 100 µM
same,GI50,[31],64.7 µM
same,TGI,[31],> 100 µM
same,GI50,[32],> 100 µM
same,TGI,[32],> 100 µM
same,GI50,[33],> 100 µM
same,TGI,[33],> 100 µM
same,GI50,[49],27 µM
same,TGI,[49],> 100 µM
same,GI50,[34],43.7 µM
same,TGI,[34],> 100 µM
same,GI50,[35],35.1 µM
same,TGI,[35],> 100 µM
same,GI50,[36],38.7 µM
same,TGI,[36],> 100 µM
same,GI50,[37],33.9 µM
same,TGI,[37],> 100 µM
same,GI50,[38],43.8 µM
same,TGI,[38],> 100 µM
same,GI50,[50],> 100 µM
same,TGI,[50],> 100 µM
same,GI50,[51],80.2 µM
same,TGI,[51],> 100 µM
same,GI50,[39],63.5 µM
same,TGI,[39],> 100 µM
same,GI50,[40],43.8 µM
same,TGI,[40],> 100 µM
same,GI50,[41],> 100 µM
same,TGI,[41],> 100 µM
same,GI50,[52],64.7 µM
same,TGI,[52],> 100 µM
same,GI50,[43],9.53 µM
same,TGI,[43],> 100 µM
same,GI50,[44],65.1 µM
same,TGI,[44],> 100 µM
same,GI50,[53],> 100 µM
same,TGI,[53],> 100 µM
same,GI50,[54],23.3 µM
same,TGI,[54],> 100 µM
same,GI50,[55],93.3 µM
same,TGI,[55],> 100 µM
same,GI50,[45],32.7 µM
same,TGI,[45],> 100 µM
same,GI50,[46],30.2 µM
same,TGI,[46],> 100 µM
C=C1c2nc3ccccc3n2C=C(c2ccc(OC)cc2)N1c1ccc(OCCN2CCCCC2)cc1,TGI,[1],> 52.5 µM
same,TGI,[47],> 84.5 µM
same,TGI,[2],> 84.6 µM
same,TGI,[3],> 81.7 µM
same,TGI,[56],> 100 µM
same,TGI,[4],> 100 µM
same,TGI,[5],10.1 µM
same,TGI,[6],36.4 µM
same,TGI,[57],> 100 µM
same,TGI,[9],> 100 µM
same,TGI,[10],33.6 µM
same,TGI,[11],> 42.4 µM
same,TGI,[12],> 100 µM
same,TGI,[13],20 µM
same,TGI,[15],> 100 µM
same,TGI,[16],> 82 µM
same,TGI,[58],> 100 µM
same,TGI,[17],43.3 µM
same,TGI,[18],> 100 µM
same,TGI,[19],> 100 µM
same,TGI,[20],> 100 µM
same,TGI,[22],> 44 µM
same,TGI,[23],> 100 µM
same,TGI,[25],> 100 µM
same,TGI,[59],> 100 µM
same,TGI,[60],> 64.7 µM
same,TGI,[61],> 74.9 µM
same,TGI,[62],> 100 µM
same,TGI,[26],38.6 µM
same,TGI,[27],> 96.7 µM
same,TGI,[48],> 61.4 µM
same,TGI,[28],14.8 µM
same,TGI,[29],> 100 µM
same,TGI,[63],> 86.4 µM
same,TGI,[30],> 100 µM
same,TGI,[31],> 100 µM
same,TGI,[32],> 100 µM
same,TGI,[33],> 100 µM
same,TGI,[64],> 51.3 µM
same,TGI,[49],18.1 µM
same,TGI,[34],> 77 µM
same,TGI,[35],> 100 µM
same,TGI,[36],> 100 µM
same,TGI,[37],81.2 µM
same,TGI,[38],> 51.6 µM
same,TGI,[50],> 100 µM
same,TGI,[51],> 58.5 µM
same,TGI,[39],> 100 µM
same,TGI,[40],> 100 µM
same,TGI,[41],> 100 µM
same,TGI,[52],> 100 µM
same,TGI,[43],28.6 µM
same,TGI,[44],52.3 µM
same,TGI,[65],> 100 µM
same,TGI,[53],41.8 µM
same,TGI,[54],> 91.3 µM
same,TGI,[55],10.8 µM
same,TGI,[45],> 100 µM
same,TGI,[46],> 48.2 µM
